Test results as given in ChEMBL document CHEMBL1201862, “PubChem BioAssay data set” (2004).
Activity calls are given as the source filed them.

Assays:
[1] = Luminescent dose response cell-based high throughput screening assay for inhibitors of the Janus kinase 2 mutant JAK2V617F. [Related pubchem assays: 1446 (Primary screen.), 1521 (Confirmation assay.), 1486 (Counter screen.)]; assay type: functional
[2] = target: Sphingosine 1-phosphate receptor 1 (Homo sapiens, UniProt P21453); assay type: functional;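 also: Tango beta-arrestin reporter U2OS cells stimulated with S1P near its EC80; inhibitor potency meaning antagonism of receptor activation by the natural agonist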
Sphingosine 1-phosphate receptor 1, sequence (P21453 whole entry): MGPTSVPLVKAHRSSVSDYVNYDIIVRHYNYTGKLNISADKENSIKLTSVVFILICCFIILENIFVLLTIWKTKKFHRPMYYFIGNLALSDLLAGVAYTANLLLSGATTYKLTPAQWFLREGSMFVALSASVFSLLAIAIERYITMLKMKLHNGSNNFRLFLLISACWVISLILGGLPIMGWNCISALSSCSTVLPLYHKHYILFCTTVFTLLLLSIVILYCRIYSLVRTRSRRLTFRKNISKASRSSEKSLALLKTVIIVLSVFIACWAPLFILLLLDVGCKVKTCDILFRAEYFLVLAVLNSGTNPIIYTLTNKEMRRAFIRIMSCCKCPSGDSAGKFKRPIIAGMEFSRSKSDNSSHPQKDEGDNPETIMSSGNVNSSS

Protein RecA = target: T1, Protein RecA (Mycobacterium tuberculosis, UniProt P9WHJ3); assay: Fluorescence Cell-Free Homogeneous Dose Retest to Identify Inhibitors of RecA-Intein Splicing Activity. [Related pubchem assays (depositor defined):AID2097, AID2223, AID489010, AID492950]; assay type: functional
T1 sequence (P9WHJ3 whole entry): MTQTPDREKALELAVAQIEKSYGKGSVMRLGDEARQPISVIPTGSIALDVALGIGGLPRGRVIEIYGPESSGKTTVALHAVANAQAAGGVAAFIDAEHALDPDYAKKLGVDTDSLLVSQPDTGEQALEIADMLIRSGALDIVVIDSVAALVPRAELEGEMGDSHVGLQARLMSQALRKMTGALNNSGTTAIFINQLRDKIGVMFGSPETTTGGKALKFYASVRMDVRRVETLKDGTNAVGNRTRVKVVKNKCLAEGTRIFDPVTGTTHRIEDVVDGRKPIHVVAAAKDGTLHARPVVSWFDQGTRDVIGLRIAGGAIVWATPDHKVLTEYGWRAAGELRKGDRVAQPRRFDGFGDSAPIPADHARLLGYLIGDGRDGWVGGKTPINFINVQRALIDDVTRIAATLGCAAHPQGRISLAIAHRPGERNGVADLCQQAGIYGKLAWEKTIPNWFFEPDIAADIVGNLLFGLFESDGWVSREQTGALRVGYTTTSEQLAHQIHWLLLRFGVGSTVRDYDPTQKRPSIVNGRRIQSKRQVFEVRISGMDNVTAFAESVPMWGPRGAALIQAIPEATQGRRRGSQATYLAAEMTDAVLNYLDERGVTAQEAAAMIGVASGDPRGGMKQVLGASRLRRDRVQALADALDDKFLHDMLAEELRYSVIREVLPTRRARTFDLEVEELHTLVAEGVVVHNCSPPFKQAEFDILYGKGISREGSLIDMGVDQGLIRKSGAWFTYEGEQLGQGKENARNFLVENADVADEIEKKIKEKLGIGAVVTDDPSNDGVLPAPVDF

[3] = target: T2, Replicative DNA helicase DnaB (Mycobacterium tuberculosis, UniProt P9WMR3); assay: DnaB intein splicing inhibitors, dose response, biochemical, cell-free fluorescence (AID 449749); assay type: functional
T2 sequence (P9WMR3 whole entry): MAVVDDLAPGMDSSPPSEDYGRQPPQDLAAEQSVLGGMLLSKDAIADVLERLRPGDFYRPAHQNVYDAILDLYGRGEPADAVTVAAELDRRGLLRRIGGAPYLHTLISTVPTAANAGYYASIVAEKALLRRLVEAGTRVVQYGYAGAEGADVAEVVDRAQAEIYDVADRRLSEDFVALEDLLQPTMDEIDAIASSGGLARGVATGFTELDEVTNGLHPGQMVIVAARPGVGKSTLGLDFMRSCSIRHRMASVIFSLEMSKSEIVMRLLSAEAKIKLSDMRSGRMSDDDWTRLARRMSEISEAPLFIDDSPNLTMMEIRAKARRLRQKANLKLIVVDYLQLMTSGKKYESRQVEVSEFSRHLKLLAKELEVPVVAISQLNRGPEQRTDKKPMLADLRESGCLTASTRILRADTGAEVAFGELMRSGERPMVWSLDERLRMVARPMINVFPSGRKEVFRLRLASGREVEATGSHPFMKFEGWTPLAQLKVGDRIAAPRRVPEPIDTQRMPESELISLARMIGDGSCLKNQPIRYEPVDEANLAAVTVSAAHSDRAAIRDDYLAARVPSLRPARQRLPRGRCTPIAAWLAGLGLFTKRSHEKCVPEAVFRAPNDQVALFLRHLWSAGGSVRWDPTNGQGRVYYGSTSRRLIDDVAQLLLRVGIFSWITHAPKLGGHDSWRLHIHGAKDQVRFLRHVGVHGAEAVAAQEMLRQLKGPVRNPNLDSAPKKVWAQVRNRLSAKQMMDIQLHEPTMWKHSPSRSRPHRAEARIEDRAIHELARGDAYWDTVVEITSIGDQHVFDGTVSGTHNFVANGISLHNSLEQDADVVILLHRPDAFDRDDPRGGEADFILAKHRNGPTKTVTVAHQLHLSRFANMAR

[4] = target: T3, Sphingosine 1-phosphate receptor 4 (Homo sapiens, UniProt O95977); assay: Fluorescence dose response cell-based high throughput screening assay for antagonists of the Sphingosine 1-Phosphate Receptor 4 (S1P4). [Related pubchem assays: 1524 (Confirmation in triplicates.), 1510 (Primary screen.)]; assay type: functional
T3 sequence (O95977 whole entry): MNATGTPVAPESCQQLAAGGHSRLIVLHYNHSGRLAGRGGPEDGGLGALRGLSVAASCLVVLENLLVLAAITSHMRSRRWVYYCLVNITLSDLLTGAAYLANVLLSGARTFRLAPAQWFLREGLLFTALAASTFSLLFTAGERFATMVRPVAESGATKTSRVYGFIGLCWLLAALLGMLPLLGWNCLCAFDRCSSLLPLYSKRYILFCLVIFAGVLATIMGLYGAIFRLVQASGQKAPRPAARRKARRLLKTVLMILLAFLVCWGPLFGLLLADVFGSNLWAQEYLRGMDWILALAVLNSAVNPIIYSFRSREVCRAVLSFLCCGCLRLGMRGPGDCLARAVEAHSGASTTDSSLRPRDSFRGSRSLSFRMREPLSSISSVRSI

Prothrombin = Prothrombin (Homo sapiens, UniProt P00734); assay: Thrombin 1536 HTS Dose Response Confirmation. [Related pubchem assays: 1046 (Thrombin 1536 HTS; hits were confirmed in this assay)]; assay type: functional
Procathepsin L = Procathepsin L (Homo sapiens, UniProt P07711); assay: cathepsin L inhibitors, dose response, counter-screen for M1/M17 aminopeptidase inhibitor project, biochemical, QFRET, 1536-well (AID 2214)
Procathepsin L, sequence (P07711 whole entry): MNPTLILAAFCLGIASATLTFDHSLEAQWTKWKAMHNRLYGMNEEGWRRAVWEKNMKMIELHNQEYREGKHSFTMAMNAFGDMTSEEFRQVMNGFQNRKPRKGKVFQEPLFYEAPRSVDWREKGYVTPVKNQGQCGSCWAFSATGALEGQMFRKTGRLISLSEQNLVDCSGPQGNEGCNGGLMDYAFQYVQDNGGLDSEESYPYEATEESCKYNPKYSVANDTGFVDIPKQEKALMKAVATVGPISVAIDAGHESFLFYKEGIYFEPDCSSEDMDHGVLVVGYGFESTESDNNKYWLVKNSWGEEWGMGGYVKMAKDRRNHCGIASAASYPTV

Leucine aminopeptidase = target: T4, Leucine aminopeptidase (Plasmodium falciparum 3D7, UniProt Q8IL11); assay: P. falciparum M17LAP inhibitors, primary screen, biochemical, fluorogenic H-Leu-NHMec substrate, 1536-well (AID 1619); assay type: functional
T4 sequence (Q8IL11 whole entry): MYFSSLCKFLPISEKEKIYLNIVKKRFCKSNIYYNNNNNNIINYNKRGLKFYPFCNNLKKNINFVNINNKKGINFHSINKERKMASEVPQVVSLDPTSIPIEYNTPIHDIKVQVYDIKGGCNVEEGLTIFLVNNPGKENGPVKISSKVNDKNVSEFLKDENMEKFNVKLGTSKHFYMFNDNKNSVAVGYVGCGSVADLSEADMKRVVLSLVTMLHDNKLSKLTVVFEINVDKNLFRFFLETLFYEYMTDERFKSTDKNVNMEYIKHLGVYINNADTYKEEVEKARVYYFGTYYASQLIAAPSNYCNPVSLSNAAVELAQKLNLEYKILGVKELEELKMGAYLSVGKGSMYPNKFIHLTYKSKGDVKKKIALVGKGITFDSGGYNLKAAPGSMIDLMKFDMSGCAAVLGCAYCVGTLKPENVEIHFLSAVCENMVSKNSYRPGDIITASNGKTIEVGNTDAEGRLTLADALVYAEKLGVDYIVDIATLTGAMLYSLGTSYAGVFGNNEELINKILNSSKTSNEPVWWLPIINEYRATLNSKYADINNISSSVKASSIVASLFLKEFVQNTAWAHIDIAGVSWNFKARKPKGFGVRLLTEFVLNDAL

Aspartyl aminopeptidase = target: T5, Aspartyl aminopeptidase (Plasmodium falciparum 3D7, UniProt Q8I2J3); assay: Counterscreen for inhibitors of M1 and M17 aminopeptidases: QFRET-based biochemical high throughput dose response assay for inhibitors of the Plasmodium falciparum M18 Aspartyl Aminopeptidase (PFM18AAP). [Related PubChem assays: 1619 (Screening assay (M17LAP inhibitors).), 1445 (Screening assay (M1AAP inhibitors).)]
T5 sequence (Q8I2J3 whole entry): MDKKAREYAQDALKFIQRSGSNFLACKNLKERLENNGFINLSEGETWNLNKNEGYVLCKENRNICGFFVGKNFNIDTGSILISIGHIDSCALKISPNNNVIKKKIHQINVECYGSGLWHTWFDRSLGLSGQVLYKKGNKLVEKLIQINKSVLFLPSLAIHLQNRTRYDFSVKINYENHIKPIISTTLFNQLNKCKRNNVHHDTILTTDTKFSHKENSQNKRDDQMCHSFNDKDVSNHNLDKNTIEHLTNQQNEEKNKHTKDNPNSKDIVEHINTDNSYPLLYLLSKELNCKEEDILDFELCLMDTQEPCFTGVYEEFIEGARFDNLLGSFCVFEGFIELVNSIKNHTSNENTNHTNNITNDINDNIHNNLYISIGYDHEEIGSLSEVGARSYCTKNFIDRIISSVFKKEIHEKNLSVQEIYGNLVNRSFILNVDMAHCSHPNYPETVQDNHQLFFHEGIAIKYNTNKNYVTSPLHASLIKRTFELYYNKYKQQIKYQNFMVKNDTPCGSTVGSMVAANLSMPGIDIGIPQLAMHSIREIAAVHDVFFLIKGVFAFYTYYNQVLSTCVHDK

[5] = Luminescence Cell-Based Dose Response to Identify Activators of Luciferase Translation or Activity in H4-C Neuroglioblastoma Cells. [Related pubchem assays: 1829 (Project Summary), 1814 (Primary HTS)]; assay type: functional
[6] = Luminescence Cell-Based Dose Confirmation to Identify Activators of 5'UTR Stem-Loop Driven Alpha-Synuclein mRNA Translation in H4 Neuroglioblastoma Cells. [Related pubchem assays: 1829 (Project Summary), 1814 (Primary HTS)]; assay type: functional
[7] = Luminescence Cell-Based Dose Confirmation HTS to Identify Activators of 5'UTR Stem-Loop Driven Alpha-Synuclein mRNA Translation in H4 Neuroglioblastoma Cells. [Related pubchem assays: 1829 (Project Summary), 1814 (Primary HTS)]; assay type: functional
[8] = Luminescence Cell-Based Dose Response to Identify Activators of 5'UTR Stem-Loop Driven Prion Protein mRNA Translation in H4-C Neuroglioblastoma Cells. [Related pubchem assays: 1829 (Project Summary), 1814 (Primary HTS)]; assay type: functional
H4 = assay: Luminescence Cell-Based Dose Response HTS to Identify Activators of 5'UTR Stem-Loop Driven Prion Protein mRNA Translation in H4 Neuroglioblastoma Cells. [Related pubchem assays: 1829 (Project Summary), 1814 (Primary HTS)]; assay type: functional; settings: Homo sapiens
[9] = Luminescence Cell-Based Dose Response HTS to Identify Activators of Luciferase Translation or Activity in H4 […] Cells. [Related pubchem assays: 1829 (Project Summary), 1814 (Primary HTS)]; assay type: functional
[10] = target: Lytic switch protein BZLF1 (Epstein-Barr virus (strain B95-8) (HHV-4) (Human herpesvirus 4), UniProt P03206); assay: EBV ZTA inhibitors, dose response, counter-screen for EBNA-1 inhibitor project, biochemical, fluorescence polarization, Epstein-Barr virus, 1536-well (AID 2377); design: species or system human gammaherpesvirus 4;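 also: fluorescence polarization of Cy5-labelled ZRE DNA probe bound by purified Zta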
Lytic switch protein BZLF1, sequence (P03206 whole entry): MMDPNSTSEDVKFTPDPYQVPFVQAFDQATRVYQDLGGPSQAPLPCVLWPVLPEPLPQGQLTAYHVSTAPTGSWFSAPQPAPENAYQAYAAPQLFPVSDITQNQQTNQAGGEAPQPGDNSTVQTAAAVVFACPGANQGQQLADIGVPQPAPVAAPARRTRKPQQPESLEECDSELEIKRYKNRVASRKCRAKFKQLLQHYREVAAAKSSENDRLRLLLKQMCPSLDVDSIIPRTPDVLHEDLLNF

[11] = target: Epstein-Barr nuclear antigen 1 (Epstein-Barr virus (strain B95-8) (HHV-4) (Human herpesvirus 4), UniProt P03211); assay: EBNA-1 inhibitors, dose response, biochemical, fluorescence polarization, 1536-well (AID 2381); design: species or system human gammaherpesvirus 4;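 also: fluorescence polarization of a Cy5 DNA probe bound by EBNA-1 protein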
Epstein-Barr nuclear antigen 1, sequence (P03211 whole entry): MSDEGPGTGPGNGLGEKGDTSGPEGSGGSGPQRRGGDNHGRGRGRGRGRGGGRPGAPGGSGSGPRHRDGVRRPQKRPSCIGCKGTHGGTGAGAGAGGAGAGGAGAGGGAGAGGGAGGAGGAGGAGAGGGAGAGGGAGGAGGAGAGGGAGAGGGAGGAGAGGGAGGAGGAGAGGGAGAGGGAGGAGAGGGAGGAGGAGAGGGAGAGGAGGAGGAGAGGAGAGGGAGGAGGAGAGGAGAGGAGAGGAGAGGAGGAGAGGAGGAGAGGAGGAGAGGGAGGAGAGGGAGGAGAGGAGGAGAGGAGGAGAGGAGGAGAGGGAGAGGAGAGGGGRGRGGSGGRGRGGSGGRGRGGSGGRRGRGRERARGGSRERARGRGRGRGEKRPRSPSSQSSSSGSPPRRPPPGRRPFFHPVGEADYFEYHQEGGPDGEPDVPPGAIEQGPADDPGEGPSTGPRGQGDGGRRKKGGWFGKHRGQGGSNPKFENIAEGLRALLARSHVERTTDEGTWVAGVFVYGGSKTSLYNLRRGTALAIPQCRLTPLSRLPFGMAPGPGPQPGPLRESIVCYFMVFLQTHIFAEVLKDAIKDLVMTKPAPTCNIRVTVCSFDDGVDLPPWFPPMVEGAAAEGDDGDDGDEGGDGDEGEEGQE

[12] = target: T6, Polyadenylate-binding protein 1 (Homo sapiens, UniProt P11940); assay: PABP1 MLLE–PAM2 interaction inhibitors, dose response, miRNA deadenylation inhibitor project, biochemical, fluorescence polarization, Cy5-PAM2 peptide, secondary (AID 602260); assay type: functional; settings: read-out: IC50_Mean
T6 sequence (P11940 whole entry): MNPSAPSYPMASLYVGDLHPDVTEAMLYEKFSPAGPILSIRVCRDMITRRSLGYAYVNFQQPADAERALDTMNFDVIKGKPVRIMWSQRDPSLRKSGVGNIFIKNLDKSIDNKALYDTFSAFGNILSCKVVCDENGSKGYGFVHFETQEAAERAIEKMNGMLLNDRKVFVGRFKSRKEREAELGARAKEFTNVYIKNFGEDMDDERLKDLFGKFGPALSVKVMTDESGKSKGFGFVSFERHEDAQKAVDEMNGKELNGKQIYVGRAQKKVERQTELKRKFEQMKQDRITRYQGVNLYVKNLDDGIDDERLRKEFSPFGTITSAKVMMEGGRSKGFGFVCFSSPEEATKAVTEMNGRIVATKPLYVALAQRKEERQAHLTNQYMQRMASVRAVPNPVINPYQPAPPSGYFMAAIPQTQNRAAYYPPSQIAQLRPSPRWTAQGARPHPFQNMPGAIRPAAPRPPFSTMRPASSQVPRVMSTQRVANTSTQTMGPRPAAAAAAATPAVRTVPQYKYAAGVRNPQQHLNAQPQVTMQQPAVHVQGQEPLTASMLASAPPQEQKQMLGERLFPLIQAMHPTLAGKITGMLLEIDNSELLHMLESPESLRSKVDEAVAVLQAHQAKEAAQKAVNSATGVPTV

[13] = inhibitors of Vif binding to APOBEC3G peptide, primary screen, biochemical, TR-FRET, GST-Vif 1-94, biotin-A3G peptide, dose response retest (AID 1117319); assay type: functional;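 also: TR-FRET signal of purified GST-Vif binding a biotinylated A3G peptide; inhibitors lower the FRET signal by blocking Vif and A3G binding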
[14] = target: T6, Polyadenylate-binding protein 1; assay: PABP1 MLLE–PAM2 binding inhibitor potency, dose response, biochemical, fluorescence polarization, FITC-PAM2 peptide (AID 602259); assay type: functional; settings: read-out: IC50_Mean
[15] = THP-1 cell cytotoxicity, dose response, cytotoxicity control for Vif-APOBEC3G degradation inhibitor project, THP-1 cells (AID 1117359); assay type: functional; settings: Human immunodeficiency virus 1, THP-1

With `CCC(C)[C@@H](NC(=O)OC(C)(C)C)c1nnc(S(=O)(=O)Cc2cccc(C)c2)o1` (stereo partly specified) the IC50 [1] was 0.826 µM (active), the IC50 [2] was > 49.8 µM (not active) and the EC50 (Protein RecA) was 2.5 µM (active). The AC50 [3] was 2.31 µM (active), the IC50 [4] was 2.61 µM (active) and the IC50 (Prothrombin) was 3.23 µM (active).
For `COc1cc(NC(=O)CSc2nc3cc(C)ccc3cc2C)c(C(=O)O)cc1OC`, the IC50 (Procathepsin L) was > 59.6 µM (not active), the IC50 (Leucine aminopeptidase) was 1.93 µM (active) and the IC50 (Aspartyl aminopeptidase) was > 73.5 µM (not active).
In the case of `COc1ccc(/C=C2\SC(=O)N(CCNC(=O)Cn3cnnn3)C2=O)cc1`, the EC50 [5] is reported as 0.405 µM (active), the EC50 [6] is reported as 0.926 µM (active) and the EC50 [7] is reported as 2.28 µM (active). The EC50 [8] was 0.533 µM (active), the EC50 (H4) was 0.122 µM (active) and the EC50 [9] was 33.3 µM (active).
In the case of `COc1cc(NC(=O)COC(=O)/C=C/c2ccc(Cl)cc2Cl)cc(OC)c1`, the IC50 [10] is reported as > 111 µM (not active) and the IC50 [11] is reported as 16.1 µM (not active).
For `O=C(N/C(=C/c1ccc(Br)cc1)c1nc2ccccc2[nH]1)c1ccco1`, the IC50 [10] was 111 µM (not active) and the IC50 [11] was 20 µM (not active).
With `Cc1c(O)n(-c2ccc(F)cc2)c(SCC(=O)Nc2ccc3c4c(cccc24)CC3)nc1=O` the IC50 (Procathepsin L) was > 59.6 µM (not active), the IC50 [12] was > 66 µM (inactive) and the IC50 [13] was > 100 µM (active). The IC50 [14] was > 66 µM (inactive), the CC50 [15] was > 40 µM (active) and the IC50 (Leucine aminopeptidase) was 6.36 µM (active). For the same compound, the IC50 (Aspartyl aminopeptidase) was > 73.5 µM (not active).
